Laboratory results published in publication PMC5146859, “Phase 1/2 study of pacritinib, a next generation JAK2/FLT3 inhibitor, in myelofibrosis or other myeloid malignancies” (Journal of Hematology & Oncology, 2016).
Marks after values point to notes of the source that are not given here.

System: patients with MF
Experiment: Phase 2 hematologic parameters and transfusions
Format: in vivo, human
Method: At screening/baseline, patients underwent a medical history, physical examination, vital sign assessment, ECOG PS assessment, electrocardiogram, and assessment of hematologic parameters and blood chemistry. Hematology/blood chemistry, physical examinations, and vital sign assessments were performed throughout treatment. Toxicity was assessed using the National Cancer Institute Common Terminology Criteria for Adverse Events (NCIC-CTCAE), version 3.0, with relationship to treatment assigned by the investigator and were recorded from the first dose of pacritinib until 30 days after the last dose. Bone marrow biopsy and/or aspirate samples were drawn at baseline, on day 1 of cycle 4 and cycle 10, as clinically indicated, and at the termination visit. Disease response and progression were determined using the relevant International Working Group (IWG) criteria.

C1=C/COCc2cc(ccc2OCCN2CCCC2)Nc2nccc(n2)-c2cccc(c2)COC/1 [pacritinib, 11-(2-pyrrolidin-1-yl-ethoxy)-14,19-dioxa-5,7,26-triaza-tetracyclo[19.3.1.1(2,6). 1(8,12)]heptacosa-1(25),2(26),3,5,8,10,12(27),16,21,23-decaene]
RBC transfusions, median (phase 2, 16 transfused patients): 11 units
Hematocrit, Median % change from baseline (phase 2, Termination): 0.48%
Hemoglobin, Median % change from baseline (phase 2, Termination): 5.0%
Leukocytes, Median % change from baseline (phase 2, Termination): 15.49%
Lymphocytes, Median % change from baseline (phase 2, Termination): 39.87%
Neutrophils, Median % change from baseline (phase 2, Termination): -9.19%
Platelets, Median % change from baseline (phase 2, Termination): -5.4%
Red blood cells, Median % change from baseline (phase 2, Termination): 0.18%
Hematocrit, Median % change from baseline (phase 2, Week 2): 2.92%
Hemoglobin, Median % change from baseline (phase 2, Week 2): 5.3%
Leukocytes, Median % change from baseline (phase 2, Week 2): -5.93%
Lymphocytes, Median % change from baseline (phase 2, Week 2): 26.93%
Neutrophils, Median % change from baseline (phase 2, Week 2): -16.44%
Platelets, Median % change from baseline (phase 2, Week 2): -1.6%
Red blood cells, Median % change from baseline (phase 2, Week 2): 2.23%
Hematocrit, Median % change from baseline (phase 2, Week 4): 0.00%
Hemoglobin, Median % change from baseline (phase 2, Week 4): 2.2%
Leukocytes, Median % change from baseline (phase 2, Week 4): -26.77%
Lymphocytes, Median % change from baseline (phase 2, Week 4): -6.84%
Neutrophils, Median % change from baseline (phase 2, Week 4): -26.43%
Platelets, Median % change from baseline (phase 2, Week 4): -20.3%
Red blood cells, Median % change from baseline (phase 2, Week 4): 1.41%
Hematocrit, Median % change from baseline (phase 2, Week 6): 0.64%
Hemoglobin, Median % change from baseline (phase 2, Week 6): 9.1%
Leukocytes, Median % change from baseline (phase 2, Week 6): -5.58%
Lymphocytes, Median % change from baseline (phase 2, Week 6): 31.7%
Neutrophils, Median % change from baseline (phase 2, Week 6): -9.32%
Platelets, Median % change from baseline (phase 2, Week 6): -3.6%
Red blood cells, Median % change from baseline (phase 2, Week 6): -1.65%
Hematocrit, Median % change from baseline (phase 2, Week 8): 2.01%
Hemoglobin, Median % change from baseline (phase 2, Week 8): 4.5%
Leukocytes, Median % change from baseline (phase 2, Week 8): -5.50%
Lymphocytes, Median % change from baseline (phase 2, Week 8): 12.65%
Neutrophils, Median % change from baseline (phase 2, Week 8): -19.76%
Platelets, Median % change from baseline (phase 2, Week 8): -4.5%
Red blood cells, Median % change from baseline (phase 2, Week 8): 2.14%
Hematocrit, Median % change from baseline (phase 2, Week 10): -3.57%
Hemoglobin, Median % change from baseline (phase 2, Week 10): 8.2%
Leukocytes, Median % change from baseline (phase 2, Week 10): 7.90%
Lymphocytes, Median % change from baseline (phase 2, Week 10): 52.34%
Platelets, Median % change from baseline (phase 2, Week 10): -3.1%
Red blood cells, Median % change from baseline (phase 2, Week 10): -1.37%
Neutrophils, Median % change from baseline (phase 2, Week 10, n = 19): -1.44^b %
Hematocrit, Median % change from baseline (phase 2, Week 12): -3.31%
Hemoglobin, Median % change from baseline (phase 2, Week 12): -0.5%
Leukocytes, Median % change from baseline (phase 2, Week 12): -21.83%
Lymphocytes, Median % change from baseline (phase 2, Week 12): 20.88%
Neutrophils, Median % change from baseline (phase 2, Week 12): -31.39%
Platelets, Median % change from baseline (phase 2, Week 12): -7.7%
Red blood cells, Median % change from baseline (phase 2, Week 12): -1.81%
Hematocrit, Median % change from baseline (phase 2, Week 16): 3.11%
Hemoglobin, Median % change from baseline (phase 2, Week 16): 8.6%
Leukocytes, Median % change from baseline (phase 2, Week 16): -15.09%
